The record followed here is PubChem BioAssay (NCI).

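Tested at 5 concentrations; 48 h exposure; 96-well plates; endpoints linearly interpolated, else capped at highest concentration. GI50 marks 50% less growth. The concentration for full growth arrest is given as TGI.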 Where a SMILES comes first, the peptide text is derived from it. [ ]: non-standard residue; d: D form. The star is where a group is joined. Cbz = O=C(OCc1ccccc1)*; Aib = CC(C)(N)C(=O)O Some results are limits rather than exact numbers.

Common to all, as to test: NCI-60 cell line screen, 48 h
Assay [1] has as its system UACC-257 melanoma.
Assay [2] relates to SN12C renal.
For assay [3], the system named is CCRF-CEM leukemia.
The subject of assay [4] is HT29 colon.
Assay [5] relates to NCI-H460 lung.
Assay [6] concerns HS 578T breast.
In assay [7] the test system is DU-145 prostate.
Assay [8] has as its system COLO 205 colon.
Assay [9] deals with SK-OV-3 ovarian.
In assay [10] the test system is M14 melanoma.

Turning to `CCOP(=O)(Cc1nc(C#N)c(N)o1)OCC`, the TGI in assay [1], in assay [2], in assay [3], in assay [4], in [5] and in assay [6] was > 100 µM each time. Further, the TGI in assay [7], in [8] and in assay [9] was > 100 µM each time.
`CC(=O)c1c(O)cc(O)c(-c2c(C)cc(O)c3c2C(=O)c2cccc(O)c2C3=O)c1O`: the TGI in assay [1] came out at 40 µM; in [2] it was 36 µM; in [4] it was 31.5 µM; in assay [5], 31.7 µM; in assay [6], 34.6 µM; in assay [10] it was 51.4 µM. Besides, the TGI in assay [7] came out at 30.2 µM; in [9], 27.4 µM.
On to `CCOC(=O)CN1C(=O)C(=O)N(c2ccc(OC)c3ccccc23)C1=O`, for which the TGI in assay [1], in assay [2], in assay [3], in assay [4], in [10] and in assay [7] was > 100 µM throughout. For the same compound, the TGI in assay [8] and in assay [9] was > 100 µM throughout.
Turning to `COc1ccc(C2=Nc3c(nc(SC)[nH]c3=O)NC(c3ccccc3)C2)cc1` (configuration not stated), the TGI came to 57.4 µM in assay [1]; 47.2 µM in [2]; 98.6 µM in assay [3]; 49.8 µM in [4]; 66 µM in assay [10]; 82.7 µM in assay [7]. The TGI in [8] worked out at 34.8 µM; in assay [9], 51.9 µM.
Regarding `Cc1ccsc1/C=N/Nc1cc(C)c2ccccc2n1`, the TGI in assay [1] stood at 21 µM; in assay [2], 34 µM; in [3] it was 57.8 µM; in assay [4], 15 µM; in [6], 38.6 µM; in assay [10], 34.4 µM. For the same compound, the figures for the TGI in assay [7], in assay [8] and in assay [9] were 32 µM, 20.9 µM and 35.6 µM, respectively.
Consider `CCCCOc1ccc(S(=O)(=O)/N=C(\NO)Nc2ccc(Cl)cc2)cc1`, for which the TGI in assay [1] stood at 30.4 µM; in assay [2], 31 µM; in [3], 62.1 µM; in [4] it was 32.6 µM; in assay [5], 32.7 µM; in [6], 51.3 µM. Moreover, the TGI in assay [10] is 28.8 µM; in [7], 30.1 µM; in assay [8] it was 35.7 µM.
For the compound `CCN(CCC#N)C(=O)Nc1ccccc1`, the TGI in assay [1], in [2], in assay [3], in [4], in assay [5] and in assay [10] was > 100 µM in each case. The TGI in [7], in assay [8] and in assay [9] was > 100 µM in each case.
Take `Cc1ccc2c(c1)Nc1ccccc1P2(=O)O`: the TGI in [1], in [2], in [3], in assay [4], in assay [5] and in assay [10] was > 100 µM each time. The TGI in assay [7], in [8] and in assay [9] was > 100 µM each time.
In the case of `Fc1ccc2c(c1)nc1n2C(c2c(F)cccc2F)SC1` (configuration not stated), the TGI in [1], in [2], in [4], in assay [5], in [6] and in [10] was > 100 µM each time. For the same compound, the TGI in assay [7], in assay [8] and in assay [9] was > 100 µM each time.
As to `Cn1c2ccccc2c2c3c(c4c5ccccc5n(C)c4c21)C(=O)N(c1ccccc1)C3=O`, the TGI in [1], in [2], in assay [3], in assay [4], in assay [5] and in [10] was > 100 µM each time. For the same compound, the TGI in assay [7], in assay [8] and in [9] was > 100 µM throughout.
Take `Cc1ccc(C(=O)N/N=C(\N=Nc2ccccc2C(=O)O)c2ccc(N(C)C)cc2)cc1`: the TGI in assay [1], in assay [2], in assay [3], in [4], in assay [5] and in assay [6] was > 100 µM each time. The TGI in [10] and in [8] was > 100 µM in each case.
For the compound `Nc1ccc(C(=O)O)cc1`, the TGI in assay [1], in [2], in assay [3], in assay [4], in assay [5] and in assay [6] was > 100 µM throughout. Moreover, the TGI in assay [10], in [7] and in assay [8] was > 100 µM throughout.
Turning to `Cn1c(-c2c(C3=CC(=O)N(c4ccccc4)C3=O)c3ccccc3n2C)cc2ccccc21`, the TGI in assay [1], in assay [2], in [3], in [4], in assay [5] and in assay [10] was > 100 µM throughout. Besides, the TGI in [7], in assay [8] and in assay [9] was > 100 µM each time.
As for `Cc1ccc2c(=O)cc(-c3cccc(F)c3)[nH]c2n1`, the TGI in assay [1] was > 100 µM; in assay [2] it was > 100 µM; in [3], > 100 µM; in assay [4], 1.11 µM; in assay [6] it was 0.0591 µM; in [10], > 100 µM. For the same compound, the TGI came to 1.23 µM in assay [7] and 0.0567 µM in assay [8].
Regarding `CCOC(=O)C1CCCN1C(=O)c1ccccc1Cl` (configuration not stated), the TGI in assay [1], in [2], in assay [3], in [4], in [5] and in assay [6] was > 100 µM throughout. Also, the TGI in assay [10] and in assay [7] was > 100 µM in each case.
Regarding `CCOC(=O)CCC(NC(=O)c1ccc(Nc2nc3ccccc3nc2C(=O)OCC)s1)C(=O)OCC` (configuration not stated), the TGI in assay [1], in [2], in assay [4], in [5], in assay [6] and in assay [10] was > 100 µM throughout. Moreover, the TGI in [7], in assay [8] and in assay [9] was > 100 µM in each case.
Regarding `CC(C)(NC(=O)C(C)(C)NC(=O)OCc1ccccc1)C(=O)O` (Cbz-[Aib]-[Aib]-OH), the TGI in assay [1], in assay [2], in [3], in [4], in [5] and in assay [6] was > 100 µM each time. Also, the TGI in assay [10], in assay [7] and in assay [9] was > 100 µM throughout.
Turning to `CC(C)(CO)CNc1cc(Cl)nc(N)n1`, the TGI in assay [1], in assay [2], in assay [3], in [4], in [5] and in [6] was > 100 µM each time. The TGI in [7] and in [8] was > 100 µM in each case.
Take `ClC1=C(Cl)C2OC3C=CCC3OC2C(Cl)=C1Cl` (configuration not stated): the TGI in assay [1] was > 100 µM; in assay [3], > 100 µM; in [4], 72.1 µM; in [5] it was > 100 µM; in assay [6], 89.7 µM; in assay [10], > 100 µM. For the same compound, the TGI in assay [7] and in [9] was > 100 µM throughout.
For the compound `O=c1onc(Nc2ccccc2)n1-c1ccccc1`, the TGI in [1], in assay [2], in [3], in assay [4], in assay [5] and in assay [6] was > 100 µM throughout. The TGI in assay [10], in [8] and in assay [9] was > 100 µM throughout.
As to `O=C1c2cc3ncsc3cc2C(=O)c2c(O)ccc(O)c21`, the TGI in assay [1], in [2], in assay [3], in assay [4], in assay [5] and in assay [6] was > 100 µM each time. Besides, the TGI in assay [10], in [7] and in assay [8] was > 100 µM in each case.
As for `CCOC(=O)C1=C(C)N(Cc2ccccc2)C2(O)C(OC)CC(=O)C3C(=O)N(c4ccccc4)C(=O)C132` (configuration not stated), the TGI was 37.7 µM in assay [1]; 41.5 µM in assay [2]; > 100 µM in assay [3]; 23.9 µM in assay [4]; > 100 µM in [5]; > 100 µM in assay [6]. For the same compound, the TGI in [10] is > 100 µM; in assay [7], 15.1 µM; in [8] it was > 100 µM.
With `COc1ccc(C2NC(N)=C(C#N)C3=C2C(C)CCC3)cc1OC` (configuration not stated), the TGI in [1], in assay [2], in assay [3], in [4], in assay [6] and in [10] was > 100 µM in each case. For the same compound, the TGI in [7], in [8] and in [9] was > 100 µM each time.
As to `COc1cc(-c2nc(SC)nc3c2CCc2ccccc2-3)cc(OC)c1OC`, the TGI in assay [1], in assay [2], in assay [3], in assay [4], in assay [6] and in assay [10] was > 100 µM throughout. Also, the TGI in assay [7], in [8] and in [9] was > 100 µM each time.
As for `N=C(N)c1ccc(-c2ccc(-c3ccc(Cl)cc3Cl)s2)nc1`, the GI50 was 2.27 µM in assay [3]; 2.15 µM in assay [6]; 1.85 µM in assay [10]; 1.85 µM in assay [7]; 8 µM in assay [9]. Besides, the TGI turned out to be 5.01 µM in [3]; 4.88 µM in [6]; 3.63 µM in assay [10]; 3.27 µM in [7]; 25.6 µM in assay [9].
As to `Cc1cc(OCc2nnc3n2N=C(c2cc(F)c(Cl)cc2Cl)/C(=C/c2ccc(-c4ccc(Cl)cc4)o2)S3)ccc1Cl`, the TGI in [1], in assay [2], in assay [3], in assay [4], in [5] and in assay [6] was > 50 µM each time. The TGI in assay [10], in [7] and in assay [8] was > 50 µM each time.
Take `NNS(=O)(=O)c1ccc(/C=C2\NC(=O)NC2=O)cc1`: the TGI in [1], in [2], in assay [3], in assay [4], in assay [6] and in [10] was > 100 µM each time. For the same compound, the TGI in [7], in [8] and in assay [9] was > 100 µM each time.
As for `Cc1cc(O)c(C(C)C)cc1C(=S)Nc1ccc(Cl)cc1`, the TGI came to 23.8 µM in [1]; 16.7 µM in [3]; 27.9 µM in assay [4]; 27.4 µM in assay [5]; 28.9 µM in [6]; 31.5 µM in assay [7]. The TGI in assay [8] was 31.5 µM; in [9], 36.4 µM.
`CCCCCCCCCCCCCCCCCCNc1nc(=O)n(C2CC(OP(=O)(O)OCC3OC(n4cc(F)c(=O)[nH]c4=O)CC3O)C(CO)O2)cc1F` (configuration not stated): the TGI was > 100 µM in assay [1]; > 100 µM in [2]; 42.7 µM in assay [3]; 48.4 µM in [4]; > 100 µM in assay [6]; 43.3 µM in assay [10]. Moreover, the TGI in [7], in assay [8] and in [9] was > 100 µM each time.
As to `N#Cc1c(N2CCCC2)nsc1Nc1ccccc1`, the TGI in assay [1], in assay [2], in assay [3], in [4], in assay [5] and in assay [6] was > 100 µM throughout. Further, the TGI in [10], in assay [7] and in [8] was > 100 µM in each case.
